{
  "source": "patent US20040029965A1",
  "about": "“Formulations for reducing or eliminating toxicity of enviromental hormones containing ursodeoxycholic acid” (priority 2000, published 2004)",
  "key": {"C57B1/6J mice [1]": {"tested_on": "C57B1/6J mice", "assay": "Changes in body weight of mice after a single subcutaneous injection of TCDD", "assay_type": "in vivo", "settings": "for Weight (body weight): at sacrifice", "protocol": "(§1) Male C57B1/6J mice of 5 weeks old having the average weight of 18-22 g which had been bred in CRJ (Charles River in Japan) were purchased and used in this example as experimental animals. Those mice were acclimated under the constant breeding condition, i.e. the temperature of 24±1° C., the humidity of 60±10% and the light and darkness cycle of 12 hours, for one week and thereafter, utilized in the experiment.\n(§2) The Experimental animals were supplied with Purina powdered feed (purchased from Hae Eun Trade) and supplied with water ad libitum. All the animals were weighed twice a week during experimentation.\n(§3) 2,3,7,8-tetrachlorodibenzo-p-dioxin (TCDD) dissolved in toluene (purity of 95% or more as a result of gas chromatography analysis), manufactured by Chem. Services Inc. in USA, was volatilized with nitrogen to obtain powder. The obtained powder was dissolved in a mixed solvent containing acetone and corn oil with a volume ratio of 1:6. The resulting solution each containing 110, 27.5 and 6.9 μg/kg of TCDD was subcutaneously injected to mice at a volume of 5 ml per body weight. […] The mice were supplied with the feed from 10 days before (pre-administration) to 60 days after administration of TCDD (post-administration).\n(§4) The results are expressed as Mean±Standard Deviation values. For statistical analysis of the body weight, feed and water uptake, biochemical findings, hematological findings and the weight of organ in an acute toxicity test, verification was performed by one way analysis of variance (ANOVA) in case of equal distribution. In case significance was recognized in ANOVA, the Student's t-test was performed in the levels of p<0.05 and p<0.01."}, "C57B1/6J mice [2]": {"tested_on": "C57B1/6J mice", "assay": "Water uptake of mice after a single subcutaneous injection of TCDD", "assay_type": "in vivo", "set-up": "unit not given here", "protocol": "as §1, §2, §3, §4"}},
  "data": [
    {"smiles": "Clc1cc2c(cc1Cl)Oc1cc(Cl)c(Cl)cc1O2", "note": "[TCDD, 2,3,7,8-tetrachlorodibenzo-p-dioxin]", "values": [
      {"measurement": "body weight", "setting": "C57B1/6J mice [1]; TCDD 6.9 μg/kg alone, 0 day", "result": "20.22 ± 0.31"},
      {"measurement": "body weight", "setting": "C57B1/6J mice [1]; TCDD 6.9 μg/kg alone, 12 days", "result": "22.27 ± 0.37"},
      {"measurement": "body weight", "setting": "C57B1/6J mice [1]; TCDD 6.9 μg/kg alone, 22 days", "result": "23.68 ± 0.36"},
      {"measurement": "body weight", "setting": "C57B1/6J mice [1]; TCDD 6.9 μg/kg alone, 32 days", "result": "24.37 ± 0.48"},
      {"measurement": "body weight", "setting": "C57B1/6J mice [1]; TCDD 6.9 μg/kg alone, 39 days", "result": "25.35 ± 0.66"},
      {"measurement": "body weight", "setting": "C57B1/6J mice [1]; TCDD 6.9 μg/kg alone, 50 days", "result": "27.03 ± 1.35"},
      {"measurement": "body weight", "setting": "C57B1/6J mice [1]; TCDD 6.9 μg/kg alone, 59 days", "result": "25.98 ± 1.44"},
      {"measurement": "Weight (body weight)", "setting": "C57B1/6J mice [1]; TCDD 6.9 μg/kg alone", "result": "22.96 ± 3.97", "unit": "g"},
      {"measurement": "body weight", "setting": "C57B1/6J mice [1]; TCDD 27.5 μg/kg alone, 0 day", "result": "19.54 ± 0.22"},
      {"measurement": "body weight", "setting": "C57B1/6J mice [1]; TCDD 27.5 μg/kg alone, 12 days", "result": "20.91 ± 0.52"},
      {"measurement": "body weight", "setting": "C57B1/6J mice [1]; TCDD 27.5 μg/kg alone, 22 days", "result": "19.82 ± 1.14"},
      {"measurement": "body weight", "setting": "C57B1/6J mice [1]; TCDD 27.5 μg/kg alone, 32 days", "result": "18.54 ± 1.16"},
      {"measurement": "body weight", "setting": "C57B1/6J mice [1]; TCDD 27.5 μg/kg alone, 39 days", "result": "17.80 ± 1.40"},
      {"measurement": "body weight", "setting": "C57B1/6J mice [1]; TCDD 27.5 μg/kg alone, 50 days", "result": "16.74 ± 1.22"},
      {"measurement": "body weight", "setting": "C57B1/6J mice [1]; TCDD 27.5 μg/kg alone, 59 days", "result": "15.72 ± 1.17"},
      {"measurement": "Weight (body weight)", "setting": "C57B1/6J mice [1]; TCDD 27.5 μg/kg alone", "result": "16.18 ± 2.51", "unit": "g"},
      {"measurement": "body weight", "setting": "C57B1/6J mice [1]; TCDD 110.0 μg/kg alone, 0 day", "result": "19.36 ± 0.31"},
      {"measurement": "body weight", "setting": "C57B1/6J mice [1]; TCDD 110.0 μg/kg alone, 12 days", "result": "19.96 ± 0.32"},
      {"measurement": "body weight", "setting": "C57B1/6J mice [1]; TCDD 110.0 μg/kg alone, 22 days", "result": "20.02 ± 0.47"},
      {"measurement": "body weight", "setting": "C57B1/6J mice [1]; TCDD 110.0 μg/kg alone, 32 days", "result": "19.84 ± 0.55"},
      {"measurement": "body weight", "setting": "C57B1/6J mice [1]; TCDD 110.0 μg/kg alone, 39 days", "result": "17.62 ± 1.14"},
      {"measurement": "water uptake", "setting": "C57B1/6J mice [2]; TCDD 6.9 μg/kg alone, 10 days", "result": "4.23 ± 0.52"},
      {"measurement": "water uptake", "setting": "C57B1/6J mice [2]; TCDD 6.9 μg/kg alone, 20 days", "result": "4.08 ± 0.72"},
      {"measurement": "water uptake", "setting": "C57B1/6J mice [2]; TCDD 6.9 μg/kg alone, 30 days", "result": "4.70 ± 0.42"},
      {"measurement": "water uptake", "setting": "C57B1/6J mice [2]; TCDD 6.9 μg/kg alone, 40 days", "result": "4.30 ± 0.42"},
      {"measurement": "water uptake", "setting": "C57B1/6J mice [2]; TCDD 6.9 μg/kg alone, 50 days", "result": "4.72 ± 0.39"},
      {"measurement": "water uptake", "setting": "C57B1/6J mice [2]; TCDD 6.9 μg/kg alone, 60 days", "result": "4.88 ± 0.17"},
      {"measurement": "water uptake", "setting": "C57B1/6J mice [2]; TCDD 27.5 μg/kg alone, 10 days", "result": "3.38 ± 0.75"},
      {"measurement": "water uptake", "setting": "C57B1/6J mice [2]; TCDD 27.5 μg/kg alone, 20 days", "result": "3.58 ± 0.14"},
      {"measurement": "water uptake", "setting": "C57B1/6J mice [2]; TCDD 27.5 μg/kg alone, 30 days", "result": "3.10 ± 0.14"},
      {"measurement": "water uptake", "setting": "C57B1/6J mice [2]; TCDD 27.5 μg/kg alone, 40 days", "result": "3.10 ± 0.14"},
      {"measurement": "water uptake", "setting": "C57B1/6J mice [2]; TCDD 27.5 μg/kg alone, 50 days", "result": "2.89 ± 0.63"},
      {"measurement": "water uptake", "setting": "C57B1/6J mice [2]; TCDD 27.5 μg/kg alone, 60 days", "result": "3.19 ± 0.21"},
      {"measurement": "water uptake", "setting": "C57B1/6J mice [2]; TCDD 110.0 μg/kg alone, 10 days", "result": "3.27 ± 0.78"},
      {"measurement": "water uptake", "setting": "C57B1/6J mice [2]; TCDD 110.0 μg/kg alone, 20 days", "result": "4.00 ± 0.66"},
      {"measurement": "water uptake", "setting": "C57B1/6J mice [2]; TCDD 110.0 μg/kg alone, 30 days", "result": "4.70 ± 0.42"}
    ]}
  ]
}
